{
  "source": "patent US20060029544A1",
  "about": "“Receptor-binding cyclic peptides and methods of use” (The Regents of the University of California Office of …, priority 2004, published 2006)",
  "key": {"[1]": {"system": "A375M, a human melanoma which expresses αvβ3 integrin", "assay": "PET imaging (ECAT 951R) of mice bearing A375M tumors", "format": "in vivo", "settings": "30 minutes after injection", "method": "(§1) In vivo biodistribution studies were performed in mice using A375M, a human melanoma which expresses αvβ3 integrin. MF1 nu/nu mice were given subcutaneous injections of A375M cells into the left inguinal region. Once tumors reached 4-10 mm in size, mice (n=5 mice per time point) were injected with 50 kBq of [^18F]-C7 and sacrificed at 15, 30, and 60 minutes after injection. A second group of animals (n=3) was injected with 50 kBq of [^18F]-C7, sacrificed at 30minutes after injection, and imaged using an ECAT 951R whole body PET scanner."}, "[2]": {"system": "A375M, a human melanoma which expresses αvβ3 integrin", "assay": "In vivo biodistribution in mice bearing A375M tumors", "settings": "mouse", "method": "as §1"}, "[3]": {"target": "T1, α5β1 integrin (Homo sapiens, UniProt P05556+P08648)", "T1 construct": "chimeras comprising the extracellular domain of αvβ3, αvβ5, α5β1, and αIIbβ3 linked to the Fc domain of either mouse IgG; purchased Celltech plc (supplied, no catalogue number)", "T1 sequence (P08648 42-995 limits assumed)": "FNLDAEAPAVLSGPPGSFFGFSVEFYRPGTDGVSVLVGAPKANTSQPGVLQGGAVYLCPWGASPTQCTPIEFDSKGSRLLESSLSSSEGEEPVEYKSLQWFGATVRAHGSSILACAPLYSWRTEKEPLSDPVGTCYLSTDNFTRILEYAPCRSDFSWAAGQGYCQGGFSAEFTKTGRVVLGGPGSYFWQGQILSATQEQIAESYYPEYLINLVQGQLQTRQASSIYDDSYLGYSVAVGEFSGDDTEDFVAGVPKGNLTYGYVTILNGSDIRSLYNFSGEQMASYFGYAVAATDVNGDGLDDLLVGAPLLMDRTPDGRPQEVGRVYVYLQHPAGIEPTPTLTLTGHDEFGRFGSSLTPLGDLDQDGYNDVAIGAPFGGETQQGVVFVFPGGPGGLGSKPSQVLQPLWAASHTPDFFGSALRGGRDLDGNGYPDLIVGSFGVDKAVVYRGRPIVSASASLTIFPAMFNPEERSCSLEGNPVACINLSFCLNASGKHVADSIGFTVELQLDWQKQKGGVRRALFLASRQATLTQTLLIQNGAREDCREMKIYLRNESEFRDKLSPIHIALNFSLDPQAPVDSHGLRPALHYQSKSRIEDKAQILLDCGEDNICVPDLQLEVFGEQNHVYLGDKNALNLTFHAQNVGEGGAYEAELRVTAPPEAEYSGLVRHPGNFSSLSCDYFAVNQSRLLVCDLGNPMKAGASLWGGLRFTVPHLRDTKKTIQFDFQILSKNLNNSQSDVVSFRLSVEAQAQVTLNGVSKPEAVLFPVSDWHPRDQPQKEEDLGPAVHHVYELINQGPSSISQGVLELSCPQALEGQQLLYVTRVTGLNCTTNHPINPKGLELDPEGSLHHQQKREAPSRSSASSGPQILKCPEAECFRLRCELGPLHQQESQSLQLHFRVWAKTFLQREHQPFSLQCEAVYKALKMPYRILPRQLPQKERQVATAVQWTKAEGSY", "T1 sequence (P05556 21-728 limits assumed)": "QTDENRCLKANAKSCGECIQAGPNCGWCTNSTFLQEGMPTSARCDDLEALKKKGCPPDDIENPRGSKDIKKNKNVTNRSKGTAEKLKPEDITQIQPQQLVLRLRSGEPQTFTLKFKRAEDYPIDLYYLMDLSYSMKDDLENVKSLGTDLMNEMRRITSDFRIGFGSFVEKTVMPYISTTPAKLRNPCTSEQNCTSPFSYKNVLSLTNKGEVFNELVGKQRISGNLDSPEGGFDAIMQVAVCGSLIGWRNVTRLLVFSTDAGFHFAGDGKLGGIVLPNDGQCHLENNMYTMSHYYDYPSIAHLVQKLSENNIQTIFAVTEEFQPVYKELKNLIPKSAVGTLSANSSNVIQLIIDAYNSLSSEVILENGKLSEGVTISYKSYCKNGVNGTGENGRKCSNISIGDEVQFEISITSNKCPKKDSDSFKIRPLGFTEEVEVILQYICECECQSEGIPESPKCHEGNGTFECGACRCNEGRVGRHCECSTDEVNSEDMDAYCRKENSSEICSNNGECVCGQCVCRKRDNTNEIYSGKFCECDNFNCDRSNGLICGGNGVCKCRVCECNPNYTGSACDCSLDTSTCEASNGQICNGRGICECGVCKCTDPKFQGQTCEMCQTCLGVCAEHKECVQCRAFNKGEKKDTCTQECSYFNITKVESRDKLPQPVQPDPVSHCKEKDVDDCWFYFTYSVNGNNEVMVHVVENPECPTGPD", "assay": "ELISA: soluble α5β1-hFc binding to immobilized 50 kDa fibronectin fragment in the presence of RGD peptides", "source_text": "(§2) Four different soluble integrins were supplied by Celltech plc. Soluble forms of αvβ3, αvβ5, α5β1, and αIIbβ3 integrin were generated by constructing chimeras comprising the extracellular domain of αvβ3, αvβ5, α5β1, and αIIbβ3 linked to the Fc domain of either mouse IgG (αvβ3-mFc, αvβ5-mFc, and αIIbβ3-mFc) or human IgG (α5β1-hFc) as described by Stephens et al., Cell Adhes. Commun., 7:377-390 (2000) and Coe et al., J. Biol. Chem., 276:35854-35866 (2001). Since the four soluble integrin chimeras were supplied either as purified proteins (αvβ3-mFc and α5β1-hFc) or as unpurified hybridoma supernatants (αIIbβ3-mFc and αvβ5-mFc), it was necessary to use two types of ELISAs. […] In one type of ELISA (FIGS. 2A and 2B), the immobilized component is a 50 kDa fragment of fibronectin. In the second type of ELISA (FIGS. 2C and 2D), the immobilized component is a goat anti-mFc antibody that is used to capture chimeric proteins so that the RGD binding site of the integrin is maximally exposed. Each three-sided box in FIG. 2 represents a single well of a 96-well plate, and the components are listed in the sequence of their addition to the assay. The immobilized component at the bottom of the well is bound to the well by electrostatic interactions.\nTo analyze the affinity and selectively of RGD peptides for αvβ3 and α5β1, 96-well ELISA plates were coated with 100 μl of a 5 μg/ml of the 50 kDa fragment of fibronectin in PBS per well and left overnight at 4° C. The plates were washed with PBS using a Denley Wellwash 4 Mk 2. Washing was repeated twice with a 400 μl wash per well. 200 μ/well of blocking buffer (i.e., to prevent non-specific binding of proteins) was then added for 1 hour followed by a repeat washing with PBS. RGD peptides were then added at a maximum concentration of 200 μM and a preliminary screen was performed at three concentrations, 200,20, and 2 μM. 100 μl of an RGD peptide was added to each well and each assay was performed in triplicate. Purified soluble αvβ3-mFc or purified α5β1-hFc was diluted to 2 μg/ml and 15 ng/ml, respectively, in conjugate buffer and 100 μl was added to each well. The plates were incubated for 2 hours with shaking using a Luckham R100 Rotatest at approximately 150 rpm. After incubation, the plates were washed with PBS as previously described and a labeled antibody was added. For the αvβ3 assay, a horseradish peroxidase (HRP)-labeled F(ab′)2 fragment of goat anti-mouse IgG Fc was diluted 1:2000 in conjugate buffer and 100 μl was added to each well. For the α5β1 assay, an HRP-labeled F(ab′)2 fragment of goat anti-human IgG Fc was diluted 1:2000 in conjugate buffer and 100 μl was added to each well. Plates were incubated for 30 minutes with shaking followed by 2 washes with PBS. 100 μl of TMB substrate was added to each well and plates were shaken during a 10 minute color development. Plates were read using a plate spectrophotometer at 630 nm.\n(§3) Two negative and two positive controls were used in both types of ELISAs. For example, the negative controls were wells that contained 50 μl of an active control peptide, integrin, and biotinylated ligand or 50 μl of the active control peptide and 50 μl of buffer. These negative control wells typically develop little to no color. […] These wells typically develop the maximum amount of color.\n(§4) FIGS. 3-6 illustrate the percent binding of the vitronectin, fibronectin, or fibrinogen ligand to αvβ5, α5β1, αIIbβ3, or αvβ3 integrin in the presence of RGD peptides (i.e., linear (A), cyclic (B), or 4-[^19F]-fluorobenzoyl cyclic (C)) at different concentrations, with 100% maximum signal being the signal obtained in the absence of the peptide."}, "[4]": {"target": "T2, αvβ5 integrin (Homo sapiens, UniProt P06756+P18084)", "T2 construct": "chimeras comprising the extracellular domain of αvβ3, αvβ5, α5β1, and αIIbβ3 linked to the Fc domain of either mouse IgG; purchased Celltech plc (supplied, no catalogue number); host or cells: unpurified hybridoma / tissue culture supernatant from secreting cells", "T2 sequence (P06756 31-992 limits assumed)": "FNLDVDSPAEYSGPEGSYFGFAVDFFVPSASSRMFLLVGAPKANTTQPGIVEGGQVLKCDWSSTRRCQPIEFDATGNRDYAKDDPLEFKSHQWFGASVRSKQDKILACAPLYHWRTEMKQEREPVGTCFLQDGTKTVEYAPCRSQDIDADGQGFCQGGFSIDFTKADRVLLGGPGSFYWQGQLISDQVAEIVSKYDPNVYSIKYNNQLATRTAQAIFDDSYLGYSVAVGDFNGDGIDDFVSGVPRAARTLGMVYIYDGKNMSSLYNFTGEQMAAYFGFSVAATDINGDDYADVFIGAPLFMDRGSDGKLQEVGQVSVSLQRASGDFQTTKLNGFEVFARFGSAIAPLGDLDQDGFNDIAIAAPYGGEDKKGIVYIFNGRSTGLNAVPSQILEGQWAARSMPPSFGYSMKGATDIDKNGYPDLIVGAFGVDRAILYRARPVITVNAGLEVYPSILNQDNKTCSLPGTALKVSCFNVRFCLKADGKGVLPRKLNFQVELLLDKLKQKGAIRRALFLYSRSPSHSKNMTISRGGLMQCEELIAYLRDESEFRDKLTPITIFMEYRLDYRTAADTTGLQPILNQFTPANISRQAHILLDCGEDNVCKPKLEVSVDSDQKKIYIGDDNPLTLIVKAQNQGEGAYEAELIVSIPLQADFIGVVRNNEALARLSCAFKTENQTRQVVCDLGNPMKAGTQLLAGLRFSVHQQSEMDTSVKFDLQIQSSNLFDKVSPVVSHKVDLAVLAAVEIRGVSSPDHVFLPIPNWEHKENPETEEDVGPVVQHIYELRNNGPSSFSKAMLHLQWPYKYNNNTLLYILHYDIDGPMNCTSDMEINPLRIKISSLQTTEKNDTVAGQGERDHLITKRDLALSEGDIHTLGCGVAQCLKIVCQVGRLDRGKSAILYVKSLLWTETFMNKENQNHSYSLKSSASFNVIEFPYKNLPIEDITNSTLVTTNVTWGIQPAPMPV", "T2 sequence (P18084 24-719 limits assumed)": "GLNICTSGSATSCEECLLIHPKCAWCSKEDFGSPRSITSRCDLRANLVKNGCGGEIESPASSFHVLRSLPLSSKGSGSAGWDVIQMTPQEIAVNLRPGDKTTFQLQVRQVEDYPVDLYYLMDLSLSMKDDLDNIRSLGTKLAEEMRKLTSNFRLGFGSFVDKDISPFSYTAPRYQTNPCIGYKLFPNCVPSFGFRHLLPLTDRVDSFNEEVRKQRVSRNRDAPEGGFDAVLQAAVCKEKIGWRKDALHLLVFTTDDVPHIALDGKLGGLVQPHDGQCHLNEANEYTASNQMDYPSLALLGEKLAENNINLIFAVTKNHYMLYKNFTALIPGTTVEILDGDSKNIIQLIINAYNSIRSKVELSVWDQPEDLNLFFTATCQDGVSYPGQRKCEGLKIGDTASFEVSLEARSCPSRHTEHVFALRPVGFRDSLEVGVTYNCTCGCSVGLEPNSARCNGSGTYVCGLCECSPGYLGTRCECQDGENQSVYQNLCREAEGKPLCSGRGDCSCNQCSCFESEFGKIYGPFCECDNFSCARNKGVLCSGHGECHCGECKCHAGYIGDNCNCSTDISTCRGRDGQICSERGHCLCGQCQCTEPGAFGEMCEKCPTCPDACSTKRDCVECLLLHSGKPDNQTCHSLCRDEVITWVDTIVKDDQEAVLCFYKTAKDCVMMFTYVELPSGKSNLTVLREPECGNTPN", "assay": "ELISA: biotinylated vitronectin binding to captured soluble αvβ5-mFc in the presence of RGD peptides", "source_text": "as §2\nTo analyze the affinity and selectively of RGD peptides for αIIbβ3 and αvβ5, 96-well ELISA plates were coated with anti-murine Fc antibody at 5 μg/ml in PBS, 100 μl per well and left overnight at 4° C. The plates were washed with PBS using a Denley Wellwash 4 Mk 2. Washing was repeated twice with a 400 μl wash per well. 200 μl/well of blocking buffer was then added for 1 hour followed by a repeat washing with PBS. 100 μl of tissue culture supernatant from cells secreting soluble αIIbβ3-mFc or αvβ5-mFc, diluted 1:2 in conjugate buffer, was added to each well. Plates were incubated with shaking for 1 hour followed by two washes with PBS. 100 μl of an RGD peptide (at concentrations of 200, 20, and 2 μM), followed by either 100 μl of biotinylated fibrinogen (at 1 μg/ml in conjugate buffer) or 100 μl of biotinylated vitronectin (at 2 μg/ml in conjugate buffer) were added to each well and incubated for 2 hours with shaking. After incubation, the plates were washed with PBS as described above. 100 μl of neutravidin-peroxidase was added to each well and the plates were incubated for 30 minutes with shaking, followed by two washes with PBS. 100 μl of TMB substrate was added to each well and the plates were shaken during color development. Plates were read using a plate spectrophotometer at 630 nm.\nas §3, §4"}, "[5]": {"target": "T3, αIIbβ3 integrin (Homo sapiens, UniProt P05106+P08514)", "T3 construct": "chimeras comprising the extracellular domain of αvβ3, αvβ5, α5β1, and αIIbβ3 linked to the Fc domain of either mouse IgG; purchased Celltech plc (supplied, no catalogue number); host or cells: unpurified hybridoma / tissue culture supernatant from secreting cells", "T3 sequence (P08514 32-993 limits assumed)": "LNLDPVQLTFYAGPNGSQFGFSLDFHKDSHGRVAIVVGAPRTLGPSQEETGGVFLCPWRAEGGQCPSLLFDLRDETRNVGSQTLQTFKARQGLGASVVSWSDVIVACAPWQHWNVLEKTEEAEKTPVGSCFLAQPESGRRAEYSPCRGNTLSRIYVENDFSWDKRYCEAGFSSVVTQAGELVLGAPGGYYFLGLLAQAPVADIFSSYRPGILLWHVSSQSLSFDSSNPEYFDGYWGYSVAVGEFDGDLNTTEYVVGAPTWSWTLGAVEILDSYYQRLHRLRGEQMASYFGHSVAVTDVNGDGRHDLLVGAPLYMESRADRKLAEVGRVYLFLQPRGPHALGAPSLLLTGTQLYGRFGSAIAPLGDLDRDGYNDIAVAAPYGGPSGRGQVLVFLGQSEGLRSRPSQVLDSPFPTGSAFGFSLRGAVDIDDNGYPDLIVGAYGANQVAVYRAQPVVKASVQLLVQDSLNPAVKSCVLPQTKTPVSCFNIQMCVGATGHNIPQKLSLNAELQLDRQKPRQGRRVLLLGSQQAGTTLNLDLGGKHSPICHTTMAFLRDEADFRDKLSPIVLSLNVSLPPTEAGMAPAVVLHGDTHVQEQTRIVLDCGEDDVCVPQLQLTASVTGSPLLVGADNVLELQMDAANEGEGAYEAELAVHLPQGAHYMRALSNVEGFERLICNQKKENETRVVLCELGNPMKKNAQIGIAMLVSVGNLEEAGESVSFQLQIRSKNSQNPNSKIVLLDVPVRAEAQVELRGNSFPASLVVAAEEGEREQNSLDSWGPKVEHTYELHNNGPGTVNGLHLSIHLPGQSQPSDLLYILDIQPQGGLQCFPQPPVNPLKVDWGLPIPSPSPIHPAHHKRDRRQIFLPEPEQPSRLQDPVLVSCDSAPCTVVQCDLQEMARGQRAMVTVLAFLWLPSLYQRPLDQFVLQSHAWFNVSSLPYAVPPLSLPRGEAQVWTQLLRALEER", "T3 sequence (P05106 27-718 limits assumed)": "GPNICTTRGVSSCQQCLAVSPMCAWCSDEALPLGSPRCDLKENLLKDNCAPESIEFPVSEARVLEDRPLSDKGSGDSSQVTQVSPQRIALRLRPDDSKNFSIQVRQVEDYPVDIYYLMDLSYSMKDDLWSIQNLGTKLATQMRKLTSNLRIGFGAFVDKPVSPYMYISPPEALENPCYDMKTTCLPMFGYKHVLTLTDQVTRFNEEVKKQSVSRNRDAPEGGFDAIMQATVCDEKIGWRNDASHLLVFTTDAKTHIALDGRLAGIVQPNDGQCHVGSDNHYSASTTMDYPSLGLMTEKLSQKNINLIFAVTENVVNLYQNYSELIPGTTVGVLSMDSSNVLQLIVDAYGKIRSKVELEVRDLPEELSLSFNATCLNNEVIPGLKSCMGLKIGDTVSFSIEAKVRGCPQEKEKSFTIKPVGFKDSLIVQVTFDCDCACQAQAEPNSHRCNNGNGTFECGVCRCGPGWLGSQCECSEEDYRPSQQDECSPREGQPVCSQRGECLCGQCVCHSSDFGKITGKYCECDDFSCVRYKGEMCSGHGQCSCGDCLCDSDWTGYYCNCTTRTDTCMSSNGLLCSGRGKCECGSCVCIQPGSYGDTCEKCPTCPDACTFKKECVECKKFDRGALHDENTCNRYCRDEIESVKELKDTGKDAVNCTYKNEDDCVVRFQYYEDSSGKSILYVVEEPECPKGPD", "assay": "ELISA: biotinylated fibrinogen binding to captured soluble αIIbβ3-mFc in the presence of RGD peptides", "source_text": "as §2\nThe plates were washed with PBS using a Denley Wellwash 4 Mk 2. Washing was repeated twice with a 400 μl wash per well. 200 μl/well of blocking buffer was then added for 1 hour followed by a repeat washing with PBS. 100 μl of tissue culture supernatant from cells secreting soluble αIIbβ3-mFc or αvβ5-mFc, diluted 1:2 in conjugate buffer, was added to each well. […] After incubation, the plates were washed with PBS as described above. 100 μl of neutravidin-peroxidase was added to each well and the plates were incubated for 30 minutes with shaking, followed by two washes with PBS. 100 μl of TMB substrate was added to each well and the plates were shaken during color development. Plates were read using a plate spectrophotometer at 630 nm.\n(§5) Two negative and two positive controls were used in both types of ELISAs.\nas §4"}, "[6]": {"target": "T4, αvβ3 integrin (Homo sapiens, UniProt P05106+P06756)", "T4 construct": "chimeras comprising the extracellular domain of αvβ3, αvβ5, α5β1, and αIIbβ3 linked to the Fc domain of either mouse IgG; purchased Celltech plc (supplied, no catalogue number)", "T4 sequence (P06756 31-992 limits assumed)": "as the sequence (P06756 31-992 limits assumed) above", "T4 sequence (P05106 27-718 limits assumed)": "as the sequence (P05106 27-718 limits assumed) above", "assay": "ELISA: soluble αvβ3-mFc binding to immobilized 50 kDa fibronectin fragment in the presence of RGD peptides", "settings": "Table 2, no unit printed (b200 gives same values in μM)", "source_text": "as §2\nThe plates were washed with PBS using a Denley Wellwash 4 Mk 2. Washing was repeated twice with a 400 μl wash per well. […] Plates were read using a plate spectrophotometer at 630 nm.\nas §5, §4"}},
  "note": "Where two headings read alike, the source gives them in different places.",
  "data": [
    {"compound": "4-[^18F]-fluorobenzoyl cyclic (RGDY(OMe)K) [[^18F]-C7]", "values": [
      {"measurement": "uptake in PET images", "setting": "[1]", "result": "distinct areas of [^18F]-C7 uptake in the lower region of the mouse"},
      {"measurement": "tumor to organ ratio, heart", "setting": "[2]", "result": 5.83},
      {"measurement": "tumor to organ ratio, lung", "setting": "[2]", "result": 2.33},
      {"measurement": "tumor to organ ratio, muscle", "setting": "[2]", "result": 11.67},
      {"measurement": "tumor to organ ratio, skin", "setting": "[2]", "result": 1.6}
    ]},
    {"compound": "COc1ccc(C[C@@H]2NC(=O)[C@H](CC(=O)O)NC(=O)CNC(=O)[C@H](CCCNC(=N)N)NC(=O)[C@H](CCCCNC(=O)c3ccc(F)cc3)NC2=O)cc1", "note": "[C7, 4-[^19F]-fluorobenzoyl cyclic (RGDY(OMe)K)]", "values": [
      {"measurement": "fibronectin binding to α5β1, % of the maximum signal", "setting": "[3]; 2 μM peptide", "result": 47, "unit": "%"},
      {"measurement": "IC50", "setting": "[3]; text b200, read-out: IC50 for α5β1", "result": 0.481, "unit": "µM"},
      {"measurement": "vitronectin binding to αvβ5, % of the maximum signal", "setting": "[4]; 2 μM peptide, 100% = signal without peptide", "result": 26.1, "unit": "%"},
      {"measurement": "IC50", "setting": "[4]; text b200, read-out: IC50 for αvβ5", "result": 1.69, "unit": "µM"}
    ]},
    {"compound": "N=C(N)NCCC[C@@H]1NC(=O)[C@H](CCCCNC(=O)c2ccc(F)cc2)NC(=O)[C@@H](Cc2ccccc2)NC(=O)[C@H](CC(=O)O)NC(=O)CNC1=O", "note": "[C10]", "values": [
      {"measurement": "IC50", "setting": "[3]; Table 2, no unit printed (b200 gives same values in μM), read-out: Mean IC50, α5β1", "result": 1.37, "unit": "µM"},
      {"measurement": "IC50", "setting": "[4]; Table 2, no unit printed (b200 gives same values in μM), read-out: Mean IC50, αvβ5", "result": 6.01, "unit": "µM"},
      {"measurement": "fibrinogen binding to αIIbβ3", "setting": "[5]; 200 nM peptide", "result": 42.1, "unit": "%"},
      {"measurement": "fibrinogen binding to αIIbβ3, % of the maximum signal", "setting": "[5]; 2 μM peptide", "result": 21.9, "unit": "%"},
      {"measurement": "IC50", "setting": "[5]; Table 2, no unit printed (b200 gives same values in μM)", "result": 1.23, "unit": "µM"},
      {"measurement": "IC50", "setting": "[6]", "result": 0.018, "unit": "µM"}
    ]}
  ]
}
